Reference: US12285407B2, “Bis-indolylmethane derivatives and uses thereof” (The University of The West Indies, priority 2018, dated 2025)
In brackets after ≈: the same amount, converted by molar mass. Where two headings read alike, the source gives them in different places.

Assays:
Escherichia coli O157:H7 = format: cell-based; settings: antibiotic alone, no SP-BIM
Klebsiella pneumoniae = experiment: Adjuvant broth microdilution (antibiotic MIC with SP-BIM at 50 μg/mL); format: cell-based; settings: Klebsiella pneumonia; antibiotic alone, no SP-BIM
MRSA = experiment: as above; format: cell-based, Staphylococcus aureus; settings: antibiotic alone, Table 8 (series SP-BIMs 21-29)
Pseudomonas aeruginosa [1] = experiment: Rescue concentrations of SP-BIM that reactivate antibiotic; format: cell-based; settings: Pseudomonas aeruginosa; P. aeruginosa; agent alone; read-out: MIC (single agent)
Enterococcus faecalis = experiment: Adjuvant broth microdilution (antibiotic MIC with SP-BIM at 50 μg/mL); format: cell-based; settings: antibiotic alone
Bacillus cereus = experiment: as above; format: cell-based; settings: antibiotic alone, Table 9
Pseudomonas aeruginosa [2] = experiment: as above; format: cell-based; settings: antibiotic alone
clinical strains of MRSA = experiment: Kirby Bauer disc diffusion susceptibility profile; format: cell-based, Staphylococcus aureus; settings: for Zone of clearance: 35° C., 24 hours, average n=3; for Interpretive standard (resistant/susceptible): zones vs EUCAST breakpoints (Table 30)
Enterobacter cloacae = experiment: Adjuvant broth microdilution (antibiotic MIC with SP-BIM at 50 μg/mL); format: cell-based; settings: antibiotic alone
[3] = test system: Candida albicans ATCC 22972; experiment: Broth microdilution MIC of SP-BIMs; format: cell-based; settings: ATCC22972, SP-BIM alone, read-out: MIC Candida albicans ATCC 22972
[4] = test system: Salmonella typhimurium ATCC 14028; experiment: Broth microdilution MIC of SP-BIMs; format: cell-based; settings: Salmonella enterica, read-out: MIC Salmonella tvpkimurium ATCC 14028
Summary of the method: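 S. typhimurium at ~10^6 CFU mL^−1 in cation-adjusted Mueller Hinton broth was exposed to twofold compound dilutions from 250 to 0.02 μg mL^−1 at 35° C. for 18 hours. Resazurin was then added, with 1 hour of shaking. MIC was the lowest concentration showing no blue-to-pink colour change.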

[5] = test system: Bacillus cereus ATCC 14579; experiment: Broth microdilution MIC of SP-BIMs; format: cell-based; settings: ATCC14579, SP-BIM alone, read-out: MIC Bacillus cereus ATCC 14579
[6] = test system: panel of ATCC reference pathogen strains; experiment: Broth microdilution MIC of SP-BIMs, panel summary in text; format: cell-based
Excerpt: Reference microorganisms used in this study included: Bacillus cereus (American Type Culture Collection (ATCC) No. 14579), Streptococcus pyogenes (ATCC No. 19615), Staphylococcus aureus (ATCC No. 12600), Enterococcus faecium (ATCC No. 19434), Corynebacterium diphtheriae (ATCC No. 27010), Escherichia coli (ATCC No. 35218), Salmonella typhimurium (ATCC No. 14028), Pseudomonas aeruginosa (ATCC No. 27853), Klebsiella pneumoniae (ATCC No. 49472), and Candida albicans (ATCC No. 22972).
Prior to each experiment, cultures were streaked onto clean BHI agar plates and incubated at 35° C. for 24 hours. Colonies of the respective cultures were selected and inoculated in phosphate buffer saline (pH 7.5) to a 0.5 McFarland turbidity standard (equivalent to 10^8 CFU mL^−1). […]
To assess the antibiotic properties of the library of SP-BIMs, the broth microdilution assay was performed in 96-well microplates according to the Clinical and Laboratory Standards Institute 2014 Guidelines (CLSI 2014). […] The MIC was recorded as the well with the lowest concentration of test compound where no color change was observed.
The antimicrobial activity of the library of substituted [bis(indol-3yl)]methanes was assessed against a panel of ATCC reference pathogen strains of clinical relevance. […]

[7] = test system: Escherichia coli ATCC 35218; experiment: Broth microdilution MIC of SP-BIMs; format: cell-based; settings: ATCC35218, SP-BIM alone, read-out: MIC Escherichia coli ATCC 35218
[8] = test system: Enterococcus faecium ATCC 19434; experiment: Broth microdilution MIC of SP-BIMs; format: cell-based; settings: ATCC19434, SP-BIM alone, read-out: MIC Enterococcus faecium ATCC 19434
[9] = test system: Streptococcus pyogenes ATCC 19615; experiment: Broth microdilution MIC of SP-BIMs; format: cell-based; settings: ATCC19615, SP-BIM alone, read-out: MIC Streptococcus pyogenes ATCC 19615
[10] = test system: Corynebacterium diphtheriae ATCC 27010; experiment: Broth microdilution MIC of SP-BIMs; format: cell-based; settings: ATCC27010, SP-BIM alone, read-out: MIC Corynebacterium diphtheriae ATCC 27010
[11] = test system: Staphylococcus aureus ATCC 12600; experiment: Broth microdilution MIC of SP-BIMs; format: cell-based; settings: ATCC12600, SP-BIM alone, read-out: MIC Staphylococcus aureus ATCC 12600
[12] = test system: Pseudomonas aeruginosa ATCC 27853; experiment: Broth microdilution MIC of SP-BIMs; format: cell-based; settings: ATCC27853, SP-BIM alone, read-out: MIC Pseudomonas aeruginosa ATCC 27853
Streptococcus pneumoniae = experiment: Adjuvant broth microdilution (antibiotic MIC with SP-BIM at 50 μg/mL); format: cell-based; settings: Streptococcus pneumoniae, Streptococcus pneumonia, SP-BIM at 50 μg mL^−1
[13] = test system: Klebsiella pneumoniae ATCC 49472; experiment: Broth microdilution MIC of SP-BIMs; format: cell-based; settings: ATCC49472, SP-BIM alone, read-out: MIC Klebisella pneumoniae ATCC 49472
[14] = read-out: MIC of Kanamvcin with SP-BIM
[15] = read-out: MIC of Vancomvcin with SP-BIM

In the case of `O=C(N[C@H](CO)[C@H](O)c1ccc([N+](=O)[O-])cc1)C(Cl)Cl` [Chloramphenicol, chloramphenicol], the “MIC of antibiotic, No Compound” value (Escherichia coli O157:H7) is reported as 8 µg/mL, the “MIC of antibiotic, No Compound” value (Klebsiella pneumoniae) is reported as >250 µg/mL and the “MIC of antibiotic, No Compound” value (MRSA) is reported as <0.5 µg/mL. The MIC (Pseudomonas aeruginosa [1]) was 250 µg/mL (≈ 774 µM), the “MIC of antibiotic, No Compound” value (Enterococcus faecalis) was 250 µg/mL and the “MIC of antibiotic, No Compound” value (Bacillus cereus) was 4 µg/mL. For the same molecule, the “MIC of antibiotic, No Compound” value (Pseudomonas aeruginosa [2]) was 250 µg/mL, the Zone of clearance (clinical strains of MRSA; MRSA strain 1594) was 18.5 mm and the “Interpretive standard (resistant/susceptible)” value (clinical strains of MRSA; MRSA strain 1594) was “S”. The Zone of clearance (clinical strains of MRSA; MRSA strain 1621) was 24.5 mm, the “Interpretive standard (resistant/susceptible)” value (clinical strains of MRSA; MRSA strain 1621) was “S” and the Zone of clearance (clinical strains of MRSA; MRSA strain 5455) was 22.0 mm. For the same molecule, the “Interpretive standard (resistant/susceptible)” value (clinical strains of MRSA; MRSA strain 5455) was “S”, the Zone of clearance (clinical strains of MRSA; MRSA strain 5872) was 20.5 mm and the “Interpretive standard (resistant/susceptible)” value (clinical strains of MRSA; MRSA strain 5872) was “S”. The Zone of clearance (clinical strains of MRSA; MRSA strain 7153) was 18.0 mm, the “Interpretive standard (resistant/susceptible)” value (clinical strains of MRSA; MRSA strain 7153) was “S” and the Zone of clearance (clinical strains of MRSA; MRSA strain 7172) was 19.5 mm. The “Interpretive standard (resistant/susceptible)” value (clinical strains of MRSA; MRSA strain 7172) was “S”, the Zone of clearance (clinical strains of MRSA; MRSA strain 7698) was 16.5 mm and the “Interpretive standard (resistant/susceptible)” value (clinical strains of MRSA; MRSA strain 7698) was “S”. The Zone of clearance (clinical strains of MRSA; MRSA strain 10132) was 21.5 mm, the “Interpretive standard (resistant/susceptible)” value (clinical strains of MRSA; MRSA strain 10132) was “S” and the “MIC of antibiotic, No Compound” value (Enterobacter cloacae) was 16 µg/mL.
`c1ccc(C(c2c[nH]c3ccccc23)c2c[nH]c3ccccc23)cc1` [SP-BIM 1, bis(indol-3-yl)-phenylmethane] showed an MIC [3] of 250 µg/mL, an MIC [4] of 250 µg/mL and an MIC [5] of 83 µg/mL. For the same molecule, the “antibacterial activity” value [6] was “displayed antibacterial activity, and only against Gram-positive bacteria”, the MIC [7] was > 250 µg/mL and the MIC [8] was 52 µg/mL. For the same molecule, the MIC [9] was 83 µg/mL, the MIC [10] was 125 µg/mL and the MIC [11] was > 250 µg/mL. The MIC [12] was 250 µg/mL, the MIC (Streptococcus pneumoniae; [14]) was 125 µg/mL and the MIC (Streptococcus pneumoniae; [15]) was 1 µg/mL. For the same molecule, the MIC [13] was > 250 µg/mL.
Work on `c1ccc2c(C(c3ncc[nH]3)c3c[nH]c4ccccc34)c[nH]c2c1` [SP-BIM 4, [bis(indol-3-yl)imidazol-2-yl]methane] yielded an MIC [3] of 250 µg/mL, an MIC [4] of 250 µg/mL and an MIC [5] of 125 µg/mL. The “antibacterial activity” value [6] was “displayed antibacterial activity, and only against Gram-positive bacteria”, the MIC [7] was > 250 µg/mL and the MIC [8] was 104 µg/mL. The MIC [9] was 104 µg/mL, the MIC [10] was 166 µg/mL and the MIC [11] was 166 µg/mL. It also gave an MIC [12] of 250 µg/mL, an MIC (Streptococcus pneumoniae; [14]) of 125 µg/mL and an MIC (Streptococcus pneumoniae; [15]) of 1 µg/mL. For the same molecule, the MIC [13] was > 250 µg/mL.
